In patent US20240360177A1, “PEPTIDES WITH ANTIMICROBIAL ACTIVITIES” (priority 2021, published 2024):
In brackets after ≈: the same amount, converted by molar mass. Read-outs that look alike come from different tables or passages of the source. Non-standard residues stand in square brackets, D forms with d. Residues, ends and D or L forms follow the SMILES beside them. Aoc = NCCCCCCCC(=O)O; Ava = NCCCCC(=O)O; βAla = NCCC(=O)O

Assays:
[1] = Acute toxicity in CD-1 mice; details: both sexes, mouse, in vivo
Method: Acute toxicity and subacute toxicity of ACPs were tested in CD-1 mice. In the acute toxicity study, groups of CD-1 male or female mice were administered single intravenous or intraperitoneal escalating doses (n=2-3 per dose) of the peptides dissolved in normal saline for injection or in phosphate buffered saline. The intravenous dose was administered via tail vein with a slow push over 15-20 seconds. Doses were escalated based on tolerability.

[2] = system: C. albicans; details: 24 h
[3] = system: C. glabrata; details: 24 h
[4] = system: C. parapsilosis; details: 24 h
[5] = system: C. krusei; details: 24 h
[6] = system: C. auris; details: 24 h
[7] = system: C. tropicalis; details: 24 h
[8] = system: C. dubliniensis; details: 24 h
[9] = system: C. neoformans; details: 72 h
[10] = system: C. gattii; details: 72 h
[11] = system: Coccidioides species; details: 48-72 hrs, >50% inhibition
[12] = system: Fusarium spp.; details: 48 h
[13] = system: Scedosporium spp.; details: 72 h
[14] = system: Lomentospora prolificans
[15] = system: Rhizopus arrhizus; details: 24 h
[16] = system: Paecilomyces variotii; details: 48 h
[17] = in vitro; details: human, EC50 cytotoxicity in HepG2, intracellular ATP assay
[18] = in vitro; details: human, human serum, full strength
[19] = system: Candida spp.
[20] = system: Cryptococcus spp.
[21] = system: Filamentous Fungi
[22] = system: Staphylococcus aureus ATCC 29213; type: cell-based
[23] = system: Escherichia coli ATCC 25922; type: cell-based
[24] = system: Pseudomonas aeruginosa ATCC 27853; type: cell-based
[25] = Subacute toxicity in CD-1 mice; type: in vivo; details: daily IP for 7 days
Method: In the subacute toxicity study, groups of CD-1 male or female mice were administered seven consecutive daily intraperitoneal doses (n=3 per dose) of the peptides (SEQ ID NO: 7, SEQ ID NO: 29, SEQ ID NO: 53) dissolved in normal saline for injection. Each peptide was evaluated at 2 to 3 dose levels ranging from 2.5 to 7.5 mg/kg/day. Mice were weighed at least once daily and observed at least twice daily for any abnormal findings and determination of overall health. At 24 hrs after the last dose, mice were humanely euthanized, with blood collected through cardiac puncture into K2EDTA microtainers to assess hematological parameters. All three peptides were tolerated at the highest dose evaluated (7.5 mg/kg/day) for 7 days.

[26] = mice

Row | Structure (SMILES) | MIC C. albicans [2] [mg/L] | MIC C. glabrata [3] [mg/L] | MIC C. parapsilosis [4] [mg/L] | MIC C. krusei [5] [mg/L] | MIC C. auris [6] [mg/L] | MIC C. tropicalis [7] [mg/L] | MIC C. dubliniensis [8] [mg/L] | MIC C. neoformans [9] [mg/L] | MIC C. gattii [10] [mg/L] | MIC Range Fusarium spp. [12] [mg/L] | MIC Range Scedosporium spp. [13] [mg/L] | MIC Range Lomentospora prolificans [14] [mg/L] | EC50 [17] [mg/L] | remaining at 2 h, 5 μM [18] [%] | Activity at 24 h MIC50 against Candida spp. [19] [mg/L] | Activity at 24 h MIC90 against Candida spp. [19] [mg/L] | Activity at 48 h MIC50 against Candida spp. [19] [mg/L] | Activity at 48 h MIC90 against Candida spp. [19] [mg/L] | MIC Range Cryptococcus spp. [20] [mg/L] | also measured
1 | N=C(N)NCCC[C@@H](N)C(=O)N[C@@H](CCCNC(=N)N)C(=O)N[C@H](CCCNC(=N)N)C(=O)NCCC(=O)N[C@H](CCCNC(=N)N)C(=O)N[C@@H](CCCNC(=N)N)C(=O)N[C@H](CCCNC(=N)N)C(=O)NCCC(=O)N[C@H](CCCNC(=N)N)C(=O)N[C@@H](CCCNC(=N)N)C(=O)N[C@H](CCCNC(=N)N)C(=O)N[C@@H](CCCNC(=N)N)C(=O)NCCC(=O)N[C@H](CCCNC(=N)N)C(=O)N[C@@H](CCCNC(=N)N)C(=O)N[C@H](CCCNC(=N)N)C(=O)N[C@@H](CCCNC(=N)N)C(=O)O [SEQ ID NO: 8, rRr-(Apr)-rRr-(Apr)-rRrR-(Apr)-rRrR] (H-[dR]R[dR][βAla][dR]R[dR][βAla][dR]R[dR]R[βAla][dR]R[dR]R-OH) | 0.5 (≈ 0.207 µM) | 0.5 (≈ 0.207 µM) | 0.25 (≈ 0.103 µM) | 0.5 (≈ 0.207 µM) | 4 (≈ 1.65 µM) | 0.25 (≈ 0.103 µM) | 0.25 (≈ 0.103 µM) | 0.5 (≈ 0.207 µM) | 0.25 (≈ 0.103 µM) | 0.25 to 0.5 | ≤0.12 | ≤0.12 | > 300 | ~100 |  |  |  |  |  | MTD ([1]; single IP dose, read-out: Tolerated single intraperitoneal dose): 10 to 15 mg/kg; MTD ([1]; single IV dose via tail vein, read-out: Tolerated single intravenous dose): 5 to 7.5 mg/kg; MIC Range Coccidioides species ([11]; N = 3 strains): 0.25 to 0.5 mg/L; MIC Range Rhizopus arrhizus [15]: 2 to 32 mg/L; MIC Range Paecilomyces variotii [16]: 0.25 mg/L (≈ 0.103 µM)
2 | N=C(N)NCCC[C@@H](N)C(=O)N[C@@H](CCCNC(=N)N)C(=O)N[C@H](CCCNC(=N)N)C(=O)NCCCCC(=O)N[C@H](CCCNC(=N)N)C(=O)N[C@@H](CCCNC(=N)N)C(=O)N[C@H](CCCNC(=N)N)C(=O)NCCCCC(=O)N[C@H](CCCNC(=N)N)C(=O)N[C@@H](CCCNC(=N)N)C(=O)N[C@H](CCCNC(=N)N)C(=O)NCCCCC(=O)N[C@H](CCCNC(=N)N)C(=O)N[C@@H](CCCNC(=N)N)C(=O)N[C@H](CCCNC(=N)N)C(N)=O [SEQ ID NO: 22, rRr-(Ava)-rRr-(Ava)-rRr-(Ava)-rRr-NH2] (H-[dR]R[dR][Ava][dR]R[dR][Ava][dR]R[dR][Ava][dR]R[dR]-NH2) | 0.5 (≈ 0.228 µM) | 0.5 (≈ 0.228 µM) | 0.25 (≈ 0.114 µM) | 1 (≈ 0.457 µM) | 2 (≈ 0.914 µM) | 0.5 (≈ 0.228 µM) | 0.25 (≈ 0.114 µM) | 1 (≈ 0.457 µM) | 0.5 (≈ 0.228 µM) | 0.5 to 16 | 1 to 2 | 2 (≈ 0.914 µM) |  |  | 1 | 8 | 2 | 32 | 0.5 to 1 | MIC Range Filamentous Fungi [21]: 0.5 to 16 mg/L
3 | N=C(N)NCCC[C@@H](N)C(=O)N[C@@H](CCCNC(=N)N)C(=O)N[C@H](CCCNC(=N)N)C(=O)NCCCCC(=O)N[C@H](CCCNC(=N)N)C(=O)N[C@@H](CCCNC(=N)N)C(=O)NCCCCC(=O)N[C@H](CCCNC(=N)N)C(=O)N[C@@H](CCCNC(=N)N)C(=O)NCCCCC(=O)N[C@H](CCCNC(=N)N)C(=O)N[C@@H](CCCNC(=N)N)C(=O)N[C@H](CCCNC(=N)N)C(N)=O [SEQ ID NO: 28, rRr-(Ava)-rR-(Ava)-rR-(Ava)-rRr-NH2] (H-[dR]R[dR][Ava][dR]R[Ava][dR]R[Ava][dR]R[dR]-NH2) | 2 (≈ 1.07 µM) | 4 (≈ 2.13 µM) | 0.5 (≈ 0.266 µM) | 8 (≈ 4.26 µM) | >32 | 1 (≈ 0.533 µM) | 1 (≈ 0.533 µM) | 8 (≈ 4.26 µM) | 4 (≈ 2.13 µM) |  | 4 (≈ 2.13 µM) | 32 (≈ 17.1 µM) |  |  | 8 | >32 | 8 | >32 | 2 to 8 | 
4 | N=C(N)NCCC[C@@H](N)C(=O)N[C@@H](CCCNC(=N)N)C(=O)N[C@H](CCCNC(=N)N)C(=O)NCCCCCCCC(=O)N[C@H](CCCNC(=N)N)C(=O)N[C@@H](CCCNC(=N)N)C(=O)N[C@H](CCCNC(=N)N)C(=O)NCCCCCCCC(=O)N[C@H](CCCNC(=N)N)C(=O)N[C@@H](CCCNC(=N)N)C(=O)N[C@H](CCCNC(=N)N)C(=O)N[C@@H](CCCNC(=N)N)C(=O)NCCCCCCCC(=O)N[C@H](CCCNC(=N)N)C(=O)N[C@@H](CCCNC(=N)N)C(=O)N[C@H](CCCNC(=N)N)C(=O)N[C@@H](CCCNC(=N)N)C(N)=O [SEQ ID NO: 29, rRr-(Aoa)-rRr-(Aoa)-rRrR-(Aoa)-rRrR-NH2] (H-[dR]R[dR][Aoc][dR]R[dR][Aoc][dR]R[dR]R[Aoc][dR]R[dR]R-NH2) | 1 (≈ 0.381 µM) | 0.5 (≈ 0.19 µM) | 0.5 (≈ 0.19 µM) | 0.5 (≈ 0.19 µM) | 0.5 (≈ 0.19 µM) | 0.5 (≈ 0.19 µM) | 0.5 (≈ 0.19 µM) | 0.5 (≈ 0.19 µM) | 0.5 (≈ 0.19 µM) | 0.5 (≈ 0.19 µM) | 0.5 (≈ 0.19 µM) | 0.5 (≈ 0.19 µM) | > 300 | ~100 |  |  |  |  |  | MIC Staphylococcus aureus [22]: 16 mg/L (≈ 6.09 µM); MIC Escherichia coli [23]: 16 mg/L (≈ 6.09 µM); MIC Pseudomonas aeruginosa [24]: 32 mg/L (≈ 12.2 µM); Tolerated dose (highest dose evaluated) [25]: 7.5 mg/kg/day; Clinical or hematological adverse effects ([25]; up to 7.5 mg/kg/day): No significant clinical or hematological adverse effects were observed; MIC Range Coccidioides species ([11]; N = 10 strains): 0.06 to 0.25 mg/L; Kidney to Plasma Concentration Ratio Day 7 ([26]; 6 hrs post dose of 7.5 mg/kg IP once daily, Day 7, mean ± SD, n = 3): 361 ± 322; Kidney to Plasma Concentration Ratio Day 1 ([26]; 6 hrs post dose of 7.5 mg/kg IP, Day 1, mean ± SD, n = 3): 236 ± 233; Day 1 AUC ratio, kidney to plasma ([26]; IP 7.5 mg/kg, Day 1): 158
5 | N=C(N)NCCC[C@@H](N)C(=O)N[C@@H](CCCNC(=N)N)C(=O)N[C@H](CCCNC(=N)N)C(=O)N1CCC[C@H]1C(=O)N[C@H](CCCNC(=N)N)C(=O)N[C@@H](CCCNC(=N)N)C(=O)N1CCC[C@H]1C(=O)N[C@H](CCCNC(=N)N)C(=O)N[C@@H](CCCNC(=N)N)C(=O)N1CCC[C@H]1C(=O)N[C@H](CCCNC(=N)N)C(=O)N[C@@H](CCCNC(=N)N)C(=O)N[C@H](CCCNC(=N)N)C(N)=O [SEQ ID NO: 70, rRr-P-rR-P-rR-P-rRr-NH2] (H-[dR]R[dR]P[dR]RP[dR]RP[dR]R[dR]-NH2) | 0.5 (≈ 0.267 µM) | 4 (≈ 2.14 µM) | 2 (≈ 1.07 µM) | 2 (≈ 1.07 µM) | >32 | 1 (≈ 0.535 µM) | 1 (≈ 0.535 µM) | 8 (≈ 4.28 µM) | 4 (≈ 2.14 µM) |  | 8 (≈ 4.28 µM) | 32 (≈ 17.1 µM) |  |  | 4 | >32 | 8 | >32 | 1 to 8 | 
